Measurements published in US9273057B2 (Bristol-Myers Squibb Company, priority 2012, dated 2016).
Where a name gives a salt, the structure may show the parent alone.

The compounds below were run against CK2A1 (CK2α/β) (Homo sapiens, UniProt P68400) (assay: CK2 kinase assay, CK2A1 (CK2α/β)). Conditions: Table A; read-out: CK2A1 (CK2α/β) (IC50).
Assay type: biochemical

CK2A1 (CK2α/β), sequence (P68400 whole entry, species assumed): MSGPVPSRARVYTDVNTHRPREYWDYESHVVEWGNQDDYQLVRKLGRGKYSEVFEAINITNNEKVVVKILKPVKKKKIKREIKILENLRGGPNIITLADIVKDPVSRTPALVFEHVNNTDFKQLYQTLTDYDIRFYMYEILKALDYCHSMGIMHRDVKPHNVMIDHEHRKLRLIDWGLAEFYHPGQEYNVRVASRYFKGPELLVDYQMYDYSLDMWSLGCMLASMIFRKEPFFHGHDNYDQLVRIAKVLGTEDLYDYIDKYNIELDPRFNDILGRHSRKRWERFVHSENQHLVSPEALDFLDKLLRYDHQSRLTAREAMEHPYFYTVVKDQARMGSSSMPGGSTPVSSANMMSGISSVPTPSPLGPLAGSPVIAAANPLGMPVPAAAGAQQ
CK2A1 (CK2α/β), sequence (P67870 whole entry partner, species assumed): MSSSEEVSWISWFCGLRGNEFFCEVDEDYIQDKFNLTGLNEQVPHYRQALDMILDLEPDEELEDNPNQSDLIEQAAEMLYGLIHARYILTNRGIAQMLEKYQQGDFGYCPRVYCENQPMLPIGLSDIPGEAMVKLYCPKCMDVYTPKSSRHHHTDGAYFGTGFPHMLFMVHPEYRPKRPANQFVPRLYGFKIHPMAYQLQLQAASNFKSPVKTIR

SMILES | IC50 [nM]
N#Cc1cc(Nc2nc(NC3CC3)c3ncc(C#N)n3n2)c(Cl)c(OC2CNCCOC2)c1 (racemic) [Example 440, (+/−)-2-((3-((1,4-oxazepan-6-yl)oxy)-2-chloro-5-cyanophenyl)amino)-4-(cyclopropylamino)imidazo[2,1-f][1,2,4]triazine-7-carbonitrile] | 0.88
N#Cc1cc(Nc2nc(NC3CC3)c3ncc(C#N)n3n2)c(Cl)c(N2CC[C@@H](NC(=O)OCCN3CCOCC3)[C@H](O)C2)c1 [Example 178, 2-morpholinoethyl ((3R,4R)-1-(2-chloro-5-cyano-3-((7-cyano-4-(cyclopropylamino)imidazo[2,1-f][1,2,4]triazin-2-yl)amino)phenyl)-3-hydroxypiperidin-4-yl)carbamate] | 0.77
CC(=O)N1CC(N2CCN(c3cc(C#N)cc(Nc4nc(NC5CC5)c5ncc(C#N)n5n4)c3Cl)C(=O)C2)C1 [Example 633, 2-((3-(4-(1-acetylazetidin-3-yl)-2-oxopiperazin-1-yl)-2-chloro-5-cyanophenyl)amino)-4-(cyclopropylamino)imidazo[2,1-f][1,2,4]triazine-7-carbonitrile] | 1.2
COC(=O)N1CCN(C2CN(c3cc(C#N)cc(Nc4nc(NC5CC5)c5ncc(C#N)n5n4)c3Cl)C2)CC1 [Example 153, methyl 4-(1-(2-chloro-5-cyano-3-((7-cyano-4-(cyclopropylamino)imidazo [2,1-f][1,2,4]triazin-2-yl)amino)phenyl)-3-azetidinyl)-1-piperazinecarboxylate] | 0.65
CC(C)(O)C(=O)N1CCC(c2cc(C#N)cc(Nc3nc(NC4CC4)c4ncc(C#N)n4n3)c2Cl)CC1 [Example 231, 2-((2-chloro-5-cyano-3-(1-(2-hydroxy-2-methylpropanoyl)-4-piperidinyl)phenyl)amino)-4-(cyclopropylamino)imidazo[2,1-f][1,2,4]triazine-7-carbonitrile] | 0.45
CC(O)C(=O)N1CC(N2CCN(c3cc(C#N)cc(Nc4nc(NC5CC5)c5ncc(C#N)n5n4)c3Cl)CC2)C1 (centres unmarked) [Example 487, 2-[(2-chloro-5-cyano-3-{4-[1-(2-hydroxypropanoyl)azetidin-3-yl]piperazin-1-yl}phenyl)amino]-4-(cyclopropylamino)imidazo[2,1-f][1,2,4]triazine-7-carbonitrile] | 0.73
CCNc1nc(Nc2cc(C#N)cc(C3CCN(C4CN(S(C)(=O)=O)C4)CC3)c2Cl)nn2c(C#N)cnc12 [Example 355, 2-((2-chloro-5-cyano-3-(1-(1-(methylsulfonyl)-3-azetidinyl)-4-piperidinyl)phenyl)amino)-4-(ethylamino)imidazo[2,1-f][1,2,4]triazine-7-carbonitrile] | 5.23
CN1CCCN(C2CN(c3cc(C#N)cc(Nc4nc(NC5CC5)c5ncc(C#N)n5n4)c3Cl)C2)CC1 [Example 29, 2-((2-chloro-5-cyano-3-(3-(4-methyl-1,4-diazepan-1-yl)-1-azetidinyl)phenyl)amino)-4-(cyclopropylamino)imidazo [2,1-f][1,2,4]triazine-7-carbonitrile] | 0.31
N#Cc1cc(Nc2nc(NC3CC3)c3ncc(C#N)n3n2)c(Cl)c(N2CCN(CCO)CC2=O)c1 [Example 634, 2-((2-chloro-5-cyano-3-(4-(2-hydroxyethyl)-2-oxopiperazin-1-yl)phenyl)amino)-4-(cyclopropylamino)imidazo[2,1-f][1,2,4]triazine-7-carbonitrile] | 3
COC(=O)N1CC(N2CCN(c3cc(OC(F)F)cc(Nc4nc(NC5CC5)c5ncc(C#N)n5n4)c3Cl)CC2)C1 [Example 562, methyl 3-(4-(2-chloro-3-((7-cyano-4-(cyclopropylamino)imidazo[2,1-f][1,2,4]triazin-2-yl)amino)-5-(difluoromethoxy)phenyl)piperazin-1-yl)azetidine-1-carboxylate] | 3.33
CCNc1nc(Nc2ccc3c(c2)c(C#N)cn3C2CCN(C[C@@H](O)CN3CCOCC3)CC2)nn2c(C#N)cnc12 [Example 830, (R)-2-((3-cyano-1-(1-(2-hydroxy-3-morpholinopropyl)piperidin-4-yl)-1H-indol-5-yl)amino)-4-(ethylamino)imidazo[2,1-f][1,2,4]triazine-7-carbonitrile] | 0.35
CC[C@H]1CN(c2cc(C#N)cc(Nc3nc(NC4CC4)c4ncc(C#N)n4n3)c2Cl)CC[C@H]1NC(=O)OC (racemic) [Example 296, (+/−) methyl ((3S,4R)-1-(2-chloro-5-cyano-3-((7-cyano-4-(cyclopropylamino)imidazo[2,1-f][1,2,4]triazin-2-yl)amino)phenyl)-3-ethyl-4-piperidinyl)carbamate] | 0.94
CC1(CN2CCN(c3cc(C(F)F)cc(Nc4nc(NC5CC5)c5ncc(C#N)n5n4)c3Cl)CC2)COC1 [Example 264, 2-((2-chloro-5-(difluoromethyl)-3-(4-((3-methyl-3-oxetanyl)methyl)-1-piperazinyl)phenyl)amino)-4-(cyclopropylamino)imidazo[2,1-f][1,2,4]triazine-7-carbonitrile] | 2.97
N#Cc1cc(Nc2nc(NC3CC3)c3ncc(C#N)n3n2)c(Cl)c(N2CC[C@@H](N3CCOCC3)[C@H](O)C2)c1 (racemic) [Example 306, (+/−)-2-((2-chloro-5-cyano-3-((3R,4R)-3-hydroxy-4-morpholinopiperidin-1-yl)phenyl)amino)-4-(cyclopropylamino)imidazo[2,1-f][1,2,4]triazine-7-carbonitrile] | 1.29
CCNc1nc(Nc2cc(C#N)cc(N3CC[C@@H](NC(=O)OC)[C@H](OC(=O)[C@@H](NC(=O)[C@@H](N)CCCNC(=N)N)C(C)C)C3)c2Cl)nn2c(C#N)cnc12 [Example 823, (S)-(3R,4R)-1-(2-chloro-5-cyano-3-((7-cyano-4-(ethylamino)imidazo[2,1-f][1,2,4]triazin-2-yl)amino)phenyl)-4-((methoxycarbonyl)amino)piperidin-3-yl 2-((S)-2-amino-5-guanidinopentanamide)-3-methylbutanoate trihydrochloride] | 2
N#Cc1cc(Nc2nc(NC3CC3)c3ncc(C#N)n3n2)c(Cl)c(N2CCN(C3CN(S(=O)(=O)CC(F)(F)F)C3)CC2)c1 [Example 507, 2-[(2-chloro-5-cyano-3-{4-[1-(2,2,2-trifluoroethanesulfonyl)azetidin-3-yl]piperazin-1-yl}phenyl)amino]-4-(cyclopropylamino)imidazo[2,1-f][1,2,4]triazine-7-carbonitrile] | 16.9
N#CCC1(NC2CCN(c3cc(C#N)cc(Nc4nc(NC5CC5)c5ncc(C#N)n5n4)c3Cl)CC2)COC1 (racemic) [Example 114, (+/−) 2-((2-chloro-5-cyano-3-(4-((3-(cyanomethyl)-3-oxetanyl)amino)-1-piperidinyl)phenyl)amino)-4-(cyclopropylamino)imidazo [2,1-f][1,2,4]triazine-7-carbonitrile] | 1.57
N#Cc1cc(Nc2nc(NC3CC3)c3ncc(C#N)n3n2)c(F)c(N2CCN([C@@H]3COC[C@H]3O)CC2)c1 (racemic) [Example 552, rac-2-((5-cyano-2-fluoro-3-(4-((3R,4S)-4-hydroxytetrahydrofuran-3-yl)piperazin-1-yl)phenyl)amino)-4-(cyclopropylamino)imidazo[2,1-f][1,2,4]triazine-7-carbonitrile] | 6.31
N#Cc1cc(Nc2nc(NC3CC3)c3ncc(C#N)n3n2)c(Cl)c(OC2CCN(C3COC3)CC2)c1 [Example 425, 2-((2-chloro-5-cyano-3-((1-(oxetan-3-yl)piperidin-4-yl)oxy)phenyl)amino)-4-(cyclopropylamino)imidazo[2,1-f][1,2,4]triazine-7-carbonitrile] | 0.73
CC(CN1CC(O)C1)c1cc(C#N)cc(Nc2nc(NC3CC3)c3ncc(C#N)n3n2)c1Cl (centres unmarked) [Example 573, 2-((2-chloro-5-cyano-3-(1-(3-hydroxyazetidin-1-yl)propan-2-yl)phenyl)amino)-4-(cyclopropylamino)imidazo[2,1-f][1,2,4]triazine-7-carbonitrile] | 1.3
CC(=O)NCC1(N2CCN(c3cc(C#N)cc(Nc4nc(NC5CC5)c5ncc(C#N)n5n4)c3Cl)CC2)COC1 [Example 540, N-((3-(4-(2-chloro-5-cyano-3-((7-cyano-4-(cyclopropylamino)imidazo[2,1-f][1,2,4]triazin-2-yl)amino)phenyl)piperazin-1-yl)oxetan-3-yl)methyl)acetamide] | 6.02
N#Cc1cc(Nc2nc(NC3CC3)c3ncc(C#N)n3n2)c(Cl)c(N2CCC(O)CC2)c1 [Example 39, 2-((2-chloro-5-cyano-3-(4-hydroxy-1-piperidinyl)phenyl)amino)-4-(cyclopropylamino)imidazo [2,1-f][1,2,4]triazine-7-carbonitrile] | 0.46
COC(=O)N1CC(N2CCN(c3cc(C#N)cc(Nc4nc(NC5CC5)c5ncc(C#N)n5n4)c3Cl)CC2)C1 [Example 53, methyl 3-(4-(2-chloro-5-cyano-3-((7-cyano-4-(cyclopropylamino)imidazo[2,1-f][1,2,4]triazin-2-yl)amino)phenyl)-1-piperazinyl)-1-azetidinecarboxylate] | 2.69
COC1CN(CCCCc2cc(Cl)c(Nc3nc(NC4CC4)c4ncc(C#N)n4n3)cc2C#N)C1 [Example 571, 2-((2-chloro-5-cyano-4-(4-(3-methoxyazetidin-1-yl)butyl)phenyl)amino)-4-(cyclopropylamino)imidazo[2,1-f][1,2,4]triazine-7-carbonitrile] | 3.95
CC(=O)N1CCN(C2CN(c3cc(C#N)cc(Nc4nc(NC5CC5)c5ncc(C#N)n5n4)c3Cl)C2)CC1 [Example 541, 2-((3-(3-(4-acetylpiperazin-1-yl)azetidin-1-yl)-2-chloro-5-cyanophenyl)amino)-4-(cyclopropylamino)imidazo[2,1-f][1,2,4]triazine-7-carbonitrile] | 0.57
CCNc1nc(Nc2cc(C#N)cc(N3CC[C@@H](NC(=O)OC)[C@H](OC(=O)CCCN)C3)c2Cl)nn2c(C#N)cnc12 [Example 817, (3R,4R)-1-(2-chloro-5-cyano-3-((7-cyano-4-(ethylamino)imidazo[2,1-f][1,2,4]triazin-2-yl)amino)phenyl)-4-((methoxycarbonyl)amino)piperidin-3-yl 4-aminobutanonate hydrochloride] | 5.05
